Measurements: ChEMBL document CHEMBL1201862, “PubChem BioAssay data set” (2004)
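96-well plates; 48 h exposure; 5 concentrations. Endpoints by linear interpolation between flanking doses. Not reached: highest tested concentration assigned. Abbreviation: GI50, concentration required for 50% inhibition of growth.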 Active and inactive are the calls of the source. No stated cut-off is given here; in the data, active = GI50 up to about 1.1 µM and inactive = higher.

Legend:
Assay in all cases: inhibition of tumour cell growth, NCI panel, 48 h
786-0 = tested on: 786-0
A498 = tested on: A498
A549 = tested on: A549
ACHN = tested on: ACHN
CAKI-1 = tested on: CAKI-1
CCRF-CEM = tested on: CCRF-CEM
COLO 205 = tested on: COLO 205
DMS-114 = tested on: DMS-114
HCC 2998 = tested on: HCC 2998
HCT-116 = tested on: HCT-116
HCT-15 = tested on: HCT-15
HL-60 = tested on: HL-60
HOP-18 = tested on: HOP-18
HOP-62 = tested on: HOP-62
HOP-92 = tested on: HOP-92
HT-29 = tested on: HT-29
IGROV-1 = tested on: IGROV-1
K562 = tested on: K562
LOX IMVI = tested on: LOX IMVI
LXFL 529 = tested on: LXFL 529
M14 = tested on: M14
M19-MEL = tested on: M19-MEL
MOLT-4 = tested on: MOLT-4
Malme-3M = tested on: Malme-3M
NCI-H226 = tested on: NCI-H226
NCI-H23 = tested on: NCI-H23
NCI-H460 = tested on: NCI-H460
OVCAR-3 = tested on: OVCAR-3
OVCAR-4 = tested on: OVCAR-4
OVCAR-5 = tested on: OVCAR-5
OVCAR-8 = tested on: OVCAR-8
RXF 393 = tested on: RXF 393
RXF 631 = tested on: RXF 631
SF-268 = tested on: SF-268
SF-295 = tested on: SF-295
SF-539 = tested on: SF-539
SK-MEL-28 = tested on: SK-MEL-28
SK-MEL-5 = tested on: SK-MEL-5
SN12C = tested on: SN12C
SNB-19 = tested on: SNB-19
SNB-75 = tested on: SNB-75
SNB-78 = tested on: SNB-78
SR = tested on: SR
SW-620 = tested on: SW-620
TK-10 = tested on: TK-10
UACC-257 = tested on: UACC-257
UO-31 = tested on: UO-31
DLD-1 = tested on: DLD-1
DMS-273 = tested on: DMS-273
EKVX = tested on: EKVX
KM12 = tested on: KM12
NCI-H522 = tested on: NCI-H522
RPMI-8226 = tested on: RPMI-8226
SK-MEL-2 = tested on: SK-MEL-2
SK-OV-3 = tested on: SK-OV-3
U-251 = tested on: U-251
UACC-62 = tested on: UACC-62
KM-20L2 = tested on: KM-20L2
XF498 = tested on: XF498

With `CC(=O)N1[C@H](C(=O)O)CS[C@H]1c1ccc(F)cc1` the GI50 (786-0) was > 100 µM (inactive), the GI50 (A498) was > 100 µM (inactive) and the GI50 (A549) was > 100 µM (inactive). For the same molecule, the GI50 (ACHN) was > 100 µM (inactive), the GI50 (CAKI-1) was > 100 µM (inactive) and the GI50 (CCRF-CEM) was > 100 µM (inactive). The GI50 (COLO 205) was > 100 µM (inactive), the GI50 (DMS-114) was > 100 µM (inactive) and the GI50 (HCC 2998) was > 100 µM (inactive). The GI50 (HCT-116) was 29.1 µM (inactive), the GI50 (HCT-15) was > 100 µM and the GI50 (HL-60) was > 100 µM (inactive). The GI50 (HOP-18) was > 100 µM (inactive), the GI50 (HOP-62) was > 100 µM (inactive) and the GI50 (HOP-92) was > 100 µM (inactive). The GI50 (HT-29) was > 100 µM (inactive), the GI50 (IGROV-1) was > 100 µM (inactive) and the GI50 (K562) was > 100 µM (inactive). For the same molecule, the GI50 (LOX IMVI) was > 100 µM (inactive), the GI50 (LXFL 529) was > 100 µM (inactive) and the GI50 (M14) was > 100 µM (inactive). The GI50 (M19-MEL) was > 100 µM (inactive), the GI50 (MOLT-4) was > 100 µM (inactive) and the GI50 (Malme-3M) was > 100 µM (inactive). For the same molecule, the GI50 (NCI-H226) was > 100 µM (inactive), the GI50 (NCI-H23) was > 100 µM (inactive) and the GI50 (NCI-H460) was > 100 µM (inactive). For the same molecule, the GI50 (OVCAR-3) was > 100 µM (inactive), the GI50 (OVCAR-4) was > 100 µM (inactive) and the GI50 (OVCAR-5) was > 100 µM (inactive). For the same molecule, the GI50 (OVCAR-8) was > 100 µM (inactive), the GI50 (RXF 393) was > 100 µM (inactive) and the GI50 (RXF 631) was > 100 µM (inactive). The GI50 (SF-268) was > 100 µM (inactive), the GI50 (SF-295) was > 100 µM (inactive) and the GI50 (SF-539) was > 100 µM (inactive). The GI50 (SK-MEL-28) was > 100 µM (inactive), the GI50 (SK-MEL-5) was > 100 µM (inactive) and the GI50 (SN12C) was > 100 µM (inactive). For the same molecule, the GI50 (SNB-19) was > 100 µM (inactive), the GI50 (SNB-75) was > 100 µM (inactive) and the GI50 (SNB-78) was > 100 µM (inactive). The GI50 (SR) was > 100 µM (inactive), the GI50 (SW-620) was > 100 µM (inactive) and the GI50 (TK-10) was > 100 µM (inactive). For the same molecule, the GI50 (UACC-257) was > 100 µM (inactive) and the GI50 (UO-31) was > 100 µM (inactive).

With `Cc1cc2c(cc1C)[n+]([O-])c(C(=O)C/C(=N/NC(=S)NN)C(=O)Nc1cccc(C(F)(F)F)c1)c[n+]2[O-]` the GI50 (786-0) was > 100 µM (inactive), the GI50 (A498) was > 100 µM (inactive) and the GI50 (A549) was > 100 µM (inactive). For the same molecule, the GI50 (ACHN) was > 100 µM (inactive), the GI50 (CAKI-1) was > 100 µM (inactive) and the GI50 (CCRF-CEM) was 56.9 µM (inactive). The GI50 (COLO 205) was > 100 µM (inactive), the GI50 (DLD-1) was > 100 µM (inactive) and the GI50 (DMS-114) was > 100 µM (inactive). The GI50 (DMS-273) was > 100 µM (inactive), the GI50 (EKVX) was > 100 µM (inactive) and the GI50 (HCC 2998) was > 100 µM (inactive). For the same molecule, the GI50 (HCT-116) was > 100 µM (inactive), the GI50 (HCT-15) was > 100 µM and the GI50 (HL-60) was > 100 µM (inactive). For the same molecule, the GI50 (HOP-18) was > 100 µM (inactive), the GI50 (HOP-62) was > 100 µM (inactive) and the GI50 (HOP-92) was > 100 µM (inactive). For the same molecule, the GI50 (HT-29) was > 100 µM (inactive), the GI50 (IGROV-1) was > 100 µM (inactive) and the GI50 (K562) was > 100 µM (inactive). For the same molecule, the GI50 (KM12) was > 100 µM (inactive), the GI50 (LXFL 529) was > 100 µM (inactive) and the GI50 (M14) was > 100 µM (inactive). For the same molecule, the GI50 (M19-MEL) was > 100 µM (inactive), the GI50 (MOLT-4) was > 100 µM (inactive) and the GI50 (Malme-3M) was > 100 µM (inactive). For the same molecule, the GI50 (NCI-H226) was > 100 µM (inactive), the GI50 (NCI-H23) was > 100 µM (inactive) and the GI50 (NCI-H460) was > 100 µM (inactive). The GI50 (NCI-H522) was > 100 µM (inactive), the GI50 (OVCAR-3) was > 100 µM (inactive) and the GI50 (OVCAR-4) was > 100 µM (inactive). The GI50 (OVCAR-5) was > 100 µM (inactive), the GI50 (OVCAR-8) was > 100 µM (inactive) and the GI50 (RPMI-8226) was > 100 µM (inactive). The GI50 (RXF 631) was > 100 µM (inactive), the GI50 (SF-268) was > 100 µM (inactive) and the GI50 (SF-295) was > 100 µM (inactive). For the same molecule, the GI50 (SF-539) was > 100 µM (inactive), the GI50 (SK-MEL-28) was > 100 µM (inactive) and the GI50 (SK-MEL-2) was > 100 µM (inactive). The GI50 (SK-MEL-5) was > 100 µM (inactive), the GI50 (SK-OV-3) was > 100 µM (inactive) and the GI50 (SN12C) was > 100 µM (inactive). The GI50 (SNB-19) was 34 µM (inactive), the GI50 (SNB-75) was > 100 µM (inactive) and the GI50 (SNB-78) was > 100 µM (inactive). For the same molecule, the GI50 (SR) was 65.6 µM (inactive), the GI50 (SW-620) was > 100 µM (inactive) and the GI50 (TK-10) was > 100 µM (inactive). The GI50 (U-251) was > 100 µM (inactive), the GI50 (UACC-257) was > 100 µM (inactive) and the GI50 (UACC-62) was > 100 µM (inactive). For the same molecule, the GI50 (UO-31) was > 100 µM (inactive).

`N#Cc1ccc(Oc2cccc(Oc3ccccc3)c2)cc1C#N` was tested, and the GI50 (786-0) was > 10 µM (inactive), the GI50 (A498) was 41.5 µM (inactive) and the GI50 (A549) was 42 µM (inactive). For the same molecule, the GI50 (ACHN) was 54.3 µM (inactive), the GI50 (CAKI-1) was > 10 µM (inactive) and the GI50 (CCRF-CEM) was 23.3 µM (inactive). For the same molecule, the GI50 (COLO 205) was > 10 µM (inactive), the GI50 (DLD-1) was > 10 µM (inactive) and the GI50 (DMS-114) was 31.9 µM (inactive). The GI50 (EKVX) was 37.5 µM (inactive), the GI50 (HCC 2998) was > 10 µM (inactive) and the GI50 (HCT-116) was 44.3 µM (inactive). For the same molecule, the GI50 (HCT-15) was > 10 µM, the GI50 (HL-60) was 31.9 µM (inactive) and the GI50 (HOP-18) was > 10 µM (inactive). For the same molecule, the GI50 (HOP-62) was > 10 µM (inactive), the GI50 (HOP-92) was > 10 µM (inactive) and the GI50 (HT-29) was > 10 µM (inactive). For the same molecule, the GI50 (IGROV-1) was > 10 µM (inactive), the GI50 (K562) was 41.4 µM (inactive) and the GI50 (KM-20L2) was > 10 µM (inactive). The GI50 (KM12) was > 10 µM (inactive), the GI50 (LOX IMVI) was > 10 µM (inactive) and the GI50 (LXFL 529) was 61 µM (inactive). For the same molecule, the GI50 (M14) was > 10 µM (inactive), the GI50 (M19-MEL) was > 10 µM (inactive) and the GI50 (MOLT-4) was 30.8 µM (inactive). For the same molecule, the GI50 (Malme-3M) was > 10 µM (inactive), the GI50 (NCI-H226) was > 10 µM (inactive) and the GI50 (NCI-H23) was 44.8 µM (inactive). For the same molecule, the GI50 (NCI-H460) was 74.5 µM (inactive), the GI50 (NCI-H522) was 14.2 µM (inactive) and the GI50 (OVCAR-3) was 75.2 µM (inactive). For the same molecule, the GI50 (OVCAR-4) was 36.7 µM (inactive), the GI50 (OVCAR-5) was > 10 µM (inactive) and the GI50 (OVCAR-8) was > 10 µM (inactive). For the same molecule, the GI50 (RPMI-8226) was > 10 µM (inactive), the GI50 (RXF 393) was 64 µM (inactive) and the GI50 (RXF 631) was 79.6 µM (inactive). For the same molecule, the GI50 (SF-268) was 48.2 µM (inactive), the GI50 (SF-295) was 76.2 µM (inactive) and the GI50 (SF-539) was 99.5 µM (inactive). The GI50 (SK-MEL-28) was 61.7 µM (inactive), the GI50 (SK-MEL-2) was 64 µM (inactive) and the GI50 (SK-MEL-5) was 36.7 µM (inactive). For the same molecule, the GI50 (SK-OV-3) was > 10 µM (inactive), the GI50 (SN12C) was > 10 µM (inactive) and the GI50 (SNB-19) was 28.5 µM (inactive). For the same molecule, the GI50 (SNB-75) was 1.35 µM (inactive), the GI50 (SNB-78) was > 10 µM (inactive) and the GI50 (SR) was > 10 µM (inactive). The GI50 (SW-620) was > 100 µM (inactive), the GI50 (TK-10) was > 10 µM (inactive) and the GI50 (U-251) was 71.1 µM (inactive). For the same molecule, the GI50 (UACC-257) was > 10 µM (inactive), the GI50 (UACC-62) was > 10 µM (inactive) and the GI50 (UO-31) was 14.9 µM (inactive). The GI50 (XF498) was > 10 µM (inactive).
